Laboratory results taken from US20210163471A1, “PROGRANULIN MODULATORS AND METHODS OF USING THE SAME” (ARKUDA THERAPEUTICS, priority 2017, published 2021).
Like-named read-outs stand apart in the source and are kept apart here.

Test system: BV-2 (mouse microglia) cells
Test: progranulin secretion from BV-2 cells, mouse progranulin ELISA of conditioned media
Assay type: cell-based
Settings: BV-2 cells, 16 hours incubation, 8-point curves starting at 10 μM
Description: BV-2 cells are split the day before plating into a 96 well plate format at approximately 80%. Cells should be plated the day before and allowed for 1 hour attachment period and for 16 hour incubation. […] Standard ELISA kits to measure PGRN are available from vendors such as Adipogen, R&D, and Biovendor.
Compound potency was determined by measuring progranulin secretion from BV-2 (mouse microglia) cells. BV-2 cells were grown in RPMI with 2 mM L-glutamine supplemented with 10% fetal bovine serum. On the day of the assay, cells were plated in 96-well plates at a density of 30,000 cells/well in RPMI (Roswell Park Memorial Institute media)/L-glutamine supplemented with 2% Fetal clone serum II (plating media) and left to adhere for 1 hour. Following attachment to the plate, media was replaced with treatment (8-point curves in half-log dilutions starting at 10 μM) in plating media and incubated for 16 hours. Secreted progranulin was measured from a 1:10 dilution of the conditioned media using the R&D Systems mouse progranulin ELISA kit (cat #DY2557) and following the manufacturer's instructions.

[1] = Mus musculus, BV-2, 16 h, assay run v1, read-out: PRGN v1 (EC50, progranulin secretion)
[2] = Mus musculus, BV-2, 16 h, assay run v2 (same protocol, different assay), read-out: PRGN v2 (EC50, progranulin secretion)
[3] = Mus musculus, assay run v1, read-out: PRGN v1 (EC50, progranulin secretion)
[4] = assay run v2 (same protocol, different assay), read-out: PRGN v2 (EC50, progranulin secretion)

SMILES	EC50 [1] [µM]	further results
COc1ccc([C@@H]2c3ccccc3CCN2C(=O)C[C@@H]2CN3CCC2CC3)cc1F [Compound 1061]	> 10	EC50 [2]: > 10 µM
O=C(C[C@@H]1CN2CCC1CC2)N1CCc2ccccc2[C@@H]1c1cccc(F)c1 [Compound 1062]	1.1	EC50 [2]: > 6.1 µM
O=C(C[C@@H]1CN2CCC1CC2)N1CCc2ccccc2[C@H]1c1cccc(F)c1 [Compound 1063]	> 10	EC50 [2]: > 10 µM
O=C(C[C@@H]1CN2CCC1CC2)N1CCc2ccccc2[C@@H]1c1ccc(F)c(F)c1 [Compound 1064]	2.71	EC50 [2]: 1.83 µM
O=C(C[C@@H]1CN2CCC1CC2)N1CCc2ccccc2[C@H]1c1ccc(F)c(F)c1 [Compound 1065]	> 10	EC50 [2]: > 10 µM
O=C1CCCN1c1ccc([C@H]2c3ccccc3CCN2C(=O)C[C@@H]2CN3CCC2CC3)cc1 [Compound 1066]	> 10	EC50 [2]: > 10 µM
O=C1CCCN1c1ccc([C@@H]2c3ccccc3CCN2C(=O)C[C@@H]2CN3CCC2CC3)cc1 [Compound 1067]	> 10	EC50 [2]: > 10 µM
O=C(C[C@@H]1CN2CCC1CC2)N1CCc2ccccc2[C@@H]1c1ccc(OC2CC2)cc1 [Compound 1068]	6.14	EC50 [2]: > 10 µM
O=C(C[C@@H]1CN2CCC1CC2)N1CCc2ccccc2[C@H]1c1ccc(OC2CC2)cc1 [Compound 1069]	> 10	EC50 [2]: > 10 µM
O=C(N[C@@H]1CN2CCC1CC2)N1CCc2ccccc2[C@@H]1c1ccc(F)cc1 [Compound 1070]		EC50 [3]: 0.18 µM; EC50 (Mus musculus, assay run v2 (same protocol, different assay), read-out: PRGN v2 (EC50, progranulin secretion)): 0.26 µM
O=C(N[C@@H]1CN2CCC1CC2)N1CCc2ccccc2[C@H]1c1ccc(F)cc1 [Compound 1071]		EC50 [3]: 0.41 µM
CS(=O)(=O)c1ccc([C@H]2c3ccccc3CCN2C(=O)N[C@@H]2CN3CCC2CC3)cc1 [Compound 1072, (S)-1-(4-(methylsulfonyl)phenyl)-N—((S)-quinuclidin-3-yl)-3,4-dihydroisoquinoline-2(1H)-carboxamide]	> 4.41	
COc1ccc([C@H]2c3ccccc3CCN2C(=O)N[C@@H]2CN3CCC2CC3)cc1 [Compound 1073]	4.96	
COc1ccc([C@@H]2c3ccccc3CCN2C(=O)N[C@@H]2CN3CCC2CC3)cc1 [Compound 1074]	> 10	
O=C(N[C@@H]1CN2CCC1CC2)N1CCc2ccccc2[C@@H]1c1ccc(F)c(F)c1 [Compound 1075]	0.19	
O=C(N[C@@H]1CN2CCC1CC2)N1CCc2ccccc2[C@H]1c1ccc(F)c(F)c1 [Compound 1076]	> 10	
O=C(N[C@@H]1CN2CCC1CC2)N1CCc2ccccc2[C@@H]1c1ccncc1 [Compound 1077]	> 10	
O=C(N[C@@H]1CN2CCC1CC2)N1CCc2ccccc2[C@H]1c1ccncc1 [Compound 1078]	> 10	
O=C(N[C@@H]1CN2CCC1CC2)N1CCc2ccccc2[C@@H]1c1ccc2nccn2c1 [Compound 1079]	3.69	
O=C(N[C@@H]1CN2CCC1CC2)N1CCc2ccccc2[C@H]1c1ccc2nccn2c1 [Compound 1080]	> 10	
O=C(N[C@@H]1CN2CCC1CC2)N1CCc2ccccc2[C@@H]1c1ccc(Cl)cc1 [Compound 1081]	0.25	
O=C(N[C@@H]1CN2CCC1CC2)N1CCc2ccccc2[C@H]1c1ccc(Cl)cc1 [Compound 1082]	1.6	
COc1ccc([C@H]2c3ccccc3CCN2C(=O)N[C@@H]2CN3CCC2CC3)cn1 [Compound 1083]	2.55	
COc1ccc([C@@H]2c3ccccc3CCN2C(=O)N[C@@H]2CN3CCC2CC3)cn1 [Compound 1084]	> 3.16	
O=C(N[C@@H]1CN2CCC1CC2)N1CCc2ccccc2[C@@H]1c1cccnc1 [Compound 1085]	1.78	
O=C(N[C@@H]1CN2CCC1CC2)N1CCc2ccccc2[C@H]1c1cccnc1 [Compound 1086]	3.13	

SMILES	EC50 [1] [µM]	further results
CC(C)Oc1ccc([C@H]2c3ccccc3CCN2C(=O)N[C@@H]2CN3CCC2CC3)cc1 [Compound 1087]	> 10	
CC(C)Oc1ccc([C@@H]2c3ccccc3CCN2C(=O)N[C@@H]2CN3CCC2CC3)cc1 [Compound 1088]	> 10	
CC1([C@H]2c3ccccc3CCN2C(=O)N[C@@H]2CN3CCC2CC3)COC1 [Compound 1089]	> 10	
CC1([C@@H]2c3ccccc3CCN2C(=O)N[C@@H]2CN3CCC2CC3)COC1 [Compound 1090]	> 10	
O=C(N[C@@H]1CN2CCC1CC2)N1CCc2ccccc2[C@@H]1c1ccc(OCc2ccccc2)cc1 [Compound 1091]	0.34	
O=C(N[C@@H]1CN2CCC1CC2)N1CCc2ccccc2[C@H]1c1ccc(OCc2ccccc2)cc1 [Compound 1092]	2.21	
O=C(N[C@@H]1CN2CCC1CC2)N1CCc2ccccc2[C@@H]1c1ccc(O)cc1 [Compound 1093]	> 3.16	
O=C(N[C@@H]1CN2CCC1CC2)N1CCc2ccccc2[C@H]1c1ccc(O)cc1 [Compound 1094]	1.29	
O=C(N[C@@H]1CN2CCC1CC2)N1CCc2ccccc2[C@@H]1c1ccc(-n2ccnc2)cc1 [Compound 1095]	> 10	
O=C(N[C@@H]1CN2CCC1CC2)N1CCc2ccccc2[C@H]1c1ccc(-n2ccnc2)cc1 [Compound 1096]	0.45	
O=C(N[C@@H]1CN2CCC1CC2)N1CCc2ccccc2[C@@H]1c1ccn2cncc2c1 [Compound 1097]	> 10	
O=C(N[C@@H]1CN2CCC1CC2)N1CCc2ccccc2[C@H]1c1ccn2cncc2c1 [Compound 1098]	> 10	
O=C(N[C@@H]1CN2CCC1CC2)N1CCc2ccccc2[C@@H]1c1ccc(-n2ccnn2)cc1 [Compound 1099]	> 10	
O=C(N[C@@H]1CN2CCC1CC2)N1CCc2ccccc2[C@H]1c1ccc(-n2ccnn2)cc1 [Compound 1100]	> 10	
O=C(N[C@@H]1CN2CCC1CC2)N1CCc2ccccc2[C@@H]1c1ccc(-n2cncn2)cc1 [Compound 1101]	3.85	
O=C(N[C@@H]1CN2CCC1CC2)N1CCc2ccccc2[C@H]1c1ccc(-n2cncn2)cc1 [Compound 1102]	> 10	
O=C(N[C@@H]1CN2CCC1CC2)N1CCc2ccccc2[C@@H]1c1ccc(N2CCCC2)cc1 [Compound 1103]	> 10	
O=C(N[C@@H]1CN2CCC1CC2)N1CCc2ccccc2[C@H]1c1ccc(N2CCCC2)cc1 [Compound 1104]	5.09	
O=C(N[C@@H]1CN2CCC1CC2)N1CCc2ccccc2[C@@H]1c1ccn2ccnc2c1 [Compound 1105]	> 10	EC50 [2]: > 10 µM
O=C(N[C@@H]1CN2CCC1CC2)N1CCc2ccccc2[C@H]1c1ccn2ccnc2c1 [Compound 1106]	> 10	EC50 [2]: > 10 µM
O=C(N[C@@H]1CN2CCC1CC2)N1CCc2ccccc2[C@@H]1c1ccc2cccn2c1 [Compound 1107]	5.43	EC50 [4]: 3.7 µM
O=C(N[C@@H]1CN2CCC1CC2)N1CCc2ccccc2[C@@H]1c1ccc2cccn2c1 [Compound 1108]		EC50 (assay run v1, read-out: PRGN v1 (EC50, progranulin secretion)): 5.63 µM; EC50 [4]: > 10 µM
O=C(N[C@@H]1CN2CCC1CC2)N1CCc2ccccc2[C@@H]1c1cccc(F)c1 [Compound 1109]	1.03	EC50 [2]: 1.44 µM
O=C(N[C@@H]1CN2CCC1CC2)N1CCc2ccccc2[C@H]1c1cccc(F)c1 [Compound 1110]	6.19	EC50 [2]: > 10 µM
O=C(N[C@@H]1CN2CCC1CC2)N1CCc2ccccc2[C@@H]1c1ccc2cncn2c1 [Compound 1111]	9.91	EC50 [2]: > 10 µM
